According to US8853246B2 (Dow AgroSciences LLC, priority 2009, dated 2014):
Where two headings read alike, the source gives them in different places.

What was measured:
[1] = test system: Green Peach Aphid (Myzus Persicae); test: Insecticidal test for green peach aphid in foliar spray assay (col. MYZUPE); type: in vivo; details: Myzus persicae, 72 h, read-out: MYZUPE 200 ppm (Corrected % Control, rating)
Protocol: (§1) The compounds were tested against cotton aphid, green peach aphid, and sweet potato whitefly using procedures described in the following examples and reported in Table 2.
(§2) In each case of Table 2, the rating scale is as follows at 200 ppm.
Insecticidal Test for Green Peach Aphid (Myzus Persicae) in Foliar Spray Assay
Cabbage seedlings grown in 3-inch pots, with 2-3 small (3-5 cm) true leaves, were used as test substrate. The seedlings were infested with 20-50 green peach aphids (wingless adult and nymph) one day prior to chemical application. Four pots with individual seedlings were used for each treatment. Compounds (2 mg) were dissolved in 2 mL of acetone/methanol (1:1) solvent, forming stock solutions of 1000 ppm. The stock solutions were diluted 5× with 0.025% Tween 20 in H2O to obtain a test solution at 200 ppm. A hand-held Devilbiss sprayer was used for spraying a solution to both sides of cabbage leaves until runoff. Reference plants (solvent check) were sprayed with the diluent only. Treated plants were held in a holding room for three days at approximately 25° C. and 40% relative humidity (RH) prior to grading. Evaluation was conducted by counting the number of live aphids per plant under a microscope. Corrected % Control=100*(X−Y)/X • where X=No. of live aphids on solvent check plants • Y=No. of live aphids on treated plants

[2] = test system: Sweetpotato Whitefly-Crawler (Bemisia Tabaci); test: Insecticidal test for sweetpotato whitefly-crawler in foliar spray assay (col. BEMITA); type: in vivo; details: for pest or weed control at 200 ppm: Bemisia tabaci, read-out: BEMITA 200 ppm (Corrected % Control, rating)
Protocol: as §1, §2
Insecticidal Test for Sweetpotato Whitefly-Crawler (Bemisia Tabaci) in Foliar Spray Assay
Cotton plants grown in 3-inch pots, with 1 small (3-5 cm) true leaf, were used as test substrate. The plants were placed in a room with whitefly adults. Adults were allowed to deposit eggs for 2-3 days. After a 2-3 day egg-laying period, plants were taken from the adult whitefly room. Adults were blown off leaves using a hand-held Devilbiss sprayer (23 psi). Plants with egg infestation (100-300 eggs per plant) were placed in a holding room for 5-6 days at 82° F. and 50% RH for egg hatch and crawler stage to develop. Four cotton plants were used for each treatment. Compounds (2 mg) were dissolved in 1 mL of acetone solvent, forming stock solutions of 2000 ppm. The stock solutions were diluted 10× with 0.025% Tween 20 in H2O to obtain a test solution at 200 ppm. A hand-held Devilbiss sprayer was used for spraying a solution to both sides of cotton leaf until runoff. Reference plants (solvent check) were sprayed with the diluent only. Treated plants were held in a holding room for 8-9 days at approximately 82° F. and 50% RH prior to grading. Evaluation was conducted by counting the number of live nymphs per plant under a microscope. Insecticidal activity was measured by using Abbott's correction formula and presented in Table 2 (see col. “BEMITA”): Corrected % Control=100*(X−Y)/X • where X=No. of live nymphs on solvent check plants • Y=No. of live nymphs on treated plants Pesticidally Acceptable Acid Addition Salts, Salt Derivatives, Solvates, Ester Derivatives, Polymorphs, Isotopes and Radionuclides

SMILES: Cc1nc(-c2cccnc2)sc1NC(=O)c1cnco1 [Compound 342]
- pest or weed control at 200 ppm ([1]; green peach aphid): < 80%
- pest or weed control at 200 ppm ([2]; sweetpotato whitefly-crawler): < 80%

SMILES: Cc1nc(-c2cncc(F)c2)sc1N(C)C(=O)C1CCSC1 (stereo not drawn) [Compound 214]
- pest or weed control at 200 ppm ([1]; green peach aphid): 80 to 100%
- pest or weed control at 200 ppm ([2]; sweetpotato whitefly-crawler): 80 to 100%

SMILES: CSCCNC(=S)N(C)c1sc(-c2cncc(F)c2)nc1Cl [Compound 511]
- pest or weed control at 200 ppm ([1]; Abbott's correction formula): 80 to 100%
- pest or weed control at 200 ppm ([2]; Abbott's correction formula): < 80%

SMILES: CN(C(=O)OC(C)(C)C)c1cnc(-c2ccc(Cl)nc2)s1 [Compound 16, [2-(6-chloropyridin-3-yl)-thiazol-5-yl]-methyl-carbamic acid tert-butyl ester]
- pest or weed control at 200 ppm ([1]; green peach aphid): < 80%
- pest or weed control at 200 ppm ([2]; sweetpotato whitefly-crawler): 80 to 100%

SMILES: CC1CC1C(=O)N(C)c1sc(-c2cccnc2)nc1Cl (stereo not drawn) [Compound 569]
- pest or weed control at 200 ppm ([1]; Abbott's correction formula): 80 to 100%
- pest or weed control at 200 ppm ([2]; Abbott's correction formula): 80 to 100%

SMILES: CSCC(C)(C)C(=O)Nc1sc(-c2cncc(F)c2)nc1C [Compound 139]
- pest or weed control at 200 ppm ([1]; green peach aphid): 80 to 100%
- pest or weed control at 200 ppm ([2]; sweetpotato whitefly-crawler): 80 to 100%

SMILES: CSCC(C)C(=O)N(C)c1sc(-c2cncnc2)nc1C (stereo not drawn) [Compound 52]
- pest or weed control at 200 ppm ([1]; green peach aphid): < 80%
- pest or weed control at 200 ppm ([2]; sweetpotato whitefly-crawler): 80 to 100%

SMILES: CSC(C)CC(=O)N(C)c1sc(-c2cccnc2)nc1Br (stereo not drawn) [Compound 499]
- pest or weed control at 200 ppm ([1]; Abbott's correction formula): 80 to 100%
- pest or weed control at 200 ppm ([2]; Abbott's correction formula): < 80%

SMILES: CCSCC(=O)N(C)c1sc(-c2cccnc2)nc1C [Compound 358]
- pest or weed control at 200 ppm ([1]; green peach aphid): 80 to 100%
- pest or weed control at 200 ppm ([2]; sweetpotato whitefly-crawler): 80 to 100%

SMILES: CCN(C(=O)c1ccc(C[S+](C)[O-])o1)c1sc(-c2cccnc2)nc1Cl (stereo not drawn) [Compound 549]
- pest or weed control at 200 ppm ([1]; Abbott's correction formula): 80 to 100%
- pest or weed control at 200 ppm ([2]; Abbott's correction formula): 80 to 100%

SMILES: COc1cncc(-c2nc(C)c(NC(=O)C(C)CSC)s2)c1 (stereo not drawn) [Compound 137]
- pest or weed control at 200 ppm ([1]; green peach aphid): < 80%
- pest or weed control at 200 ppm ([2]; sweetpotato whitefly-crawler): < 80%

SMILES: CSCCC(=O)N(C)c1sc(-c2ccc(F)nc2)nc1Cl [Compound 453, N-[4-chloro-2-(6-fluoro-pyridin-3-yl)-thiazol-5-yl]-N-methyl-3-methylsulfanyl-propionamide]
- pest or weed control at 200 ppm ([1]; Abbott's correction formula): 80 to 100%
- pest or weed control at 200 ppm ([2]; Abbott's correction formula): 80 to 100%

SMILES: CSCCNC(=S)Nc1sc(-c2cncc(F)c2)nc1Cl [Compound 450]
- pest or weed control at 200 ppm ([1]; Abbott's correction formula): 80 to 100%
- pest or weed control at 200 ppm ([2]; Abbott's correction formula): 80 to 100%

SMILES: CSCCC(=O)N(C)c1sc(-c2cncc(Cl)c2)nc1Cl [Compound 500]
- pest or weed control at 200 ppm ([1]; Abbott's correction formula): 80 to 100%
- pest or weed control at 200 ppm ([2]; Abbott's correction formula): 80 to 100%

SMILES: CSCC(C)C(=O)N(C)c1sc(-c2cccnc2)nc1C (stereo not drawn) [Compound 36]
- pest or weed control at 200 ppm ([1]; green peach aphid): 80 to 100%
- pest or weed control at 200 ppm ([2]; sweetpotato whitefly-crawler): 80 to 100%

SMILES: Cc1nc(-c2cccnc2)sc1NC(=O)OC1(C)CCCCC1 [Compound 198]
- pest or weed control at 200 ppm ([1]; green peach aphid): 80 to 100%
- pest or weed control at 200 ppm ([2]; sweetpotato whitefly-crawler): 80 to 100%

SMILES: COc1cncc(-c2nc(Cl)c(N(C)C(=O)CC[S+](C)[O-])s2)c1 (stereo not drawn) [Compound 514]
- pest or weed control at 200 ppm ([1]; Abbott's correction formula): < 80%
- pest or weed control at 200 ppm ([2]; Abbott's correction formula): < 80%

SMILES: CCN(C(=O)c1ccnc(C)c1)c1sc(-c2cccnc2)nc1Cl [Compound 544]
- pest or weed control at 200 ppm ([1]; Abbott's correction formula): 80 to 100%
- pest or weed control at 200 ppm ([2]; Abbott's correction formula): < 80%

SMILES: CSCC(C)C(=O)N(C)c1sc(-c2cnc(Cl)c(F)c2)nc1Cl (stereo not drawn) [Compound 473]
- pest or weed control at 200 ppm ([2]; Abbott's correction formula): < 80%

SMILES: Cc1nc(-c2cccnc2)sc1N(C)C(=O)C1CCN1C(=O)OC(C)(C)C (stereo not drawn) [Compound 338]
- BEMITA 200 ppm (Corrected % Control, rating) ([2]; sweetpotato whitefly-crawler): A (80-100)

SMILES: Cc1nc(-c2cncnc2)sc1N(C)C(=O)OC(C)(C)C [Compound 11, Methyl-(4-methyl-2-pyrimidin-5-yl-thiazol-5-yl)-carbamic acid tert-butyl ester]
- pest or weed control at 200 ppm ([1]; green peach aphid): < 80%

SMILES: Cc1nc(-c2cncnc2)sc1NC(=O)OC(C)(C)C [Compound 8, (4-Methyl-2-pyrimidin-5-yl-thiazol-5-yl)-carbamic acid tert-butyl ester]
- pest or weed control at 200 ppm ([1]; green peach aphid): 80 to 100%

SMILES: Cc1nc(-c2cccnc2)sc1N(C)C(=O)[C@@H](COCc1ccccc1)NC(=O)OC(C)(C)C [Compound 310]
- pest or weed control at 200 ppm ([1]; green peach aphid): < 80%

SMILES: Cc1nc(-c2cccnc2)sc1N(C)C(=O)C(NC(=O)OC(C)(C)C)C(C)C (stereo not drawn) [Compound 311]
- pest or weed control at 200 ppm ([1]; green peach aphid): 80 to 100%
